One may read the melting point as the temperature of the solid-liquid transition.

The values that follow come from patent publication US20100022526A1, “PYRIDAZINE DERIVATIVES, PROCESSES FOR THEIR PREPARATION AND THEIR USE AS FUNGICIDES” (SYNGENTA CROP PROTECTION, INC., priority 2007, published 2010).

The test system of data set [1] is Alternaria solani. As to the kind of experiment: Alternaria solani/tomato/Preventive (Action against Alternaria on Tomato). The following applies: preventive spray, tomato plants cv. Roter Gnom, inoculated two days after application, assessed after 4 days, untreated controls infected over 80%, read-out: inhibit fungal infestation. Format: in vivo. How it is done:
Alternaria solani/tomato/Preventive (Action against Alternaria on Tomato) 4 weeks old tomato plants cv. Roter Gnom are treated with the formulated test compound in a spray chamber. Two days after application tomato plants are inoculated by spraying a spore suspension on the test plants. After an incubation period of 4 days at 22° C./18° C. and 95% r. h. in a greenhouse the disease incidence is assessed.

For data set [2], the system named is Botrytis cinerea. As to the kind of experiment: Botrytis cinerea/tomato/preventive (Action against Botrytis on Tomato). The class given is in vivo. The following applies: preventive spray, tomato plants cv. Roter Gnom, inoculated two days after application, assessed after 3 days, untreated controls infected over 80%, read-out: inhibit fungal infestation. How it is done: Botrytis cinerea/tomato/preventive (Action against Botrytis on Tomato) 4 weeks old tomato plants cv. Roter Gnom are treated with the formulated test compound in a spray chamber. Two days after application tomato plants are inoculated by spraying a spore suspension on the test plants. After an incubation period of 3 days at 20° C. and 95% r. h. in a greenhouse the disease incidence is assessed.

In data set [3] the test system is Septoria tritici. In words: Sentoria tritici/wheat/Preventive (Action against Septoria Leaf Spot on Wheat). Format: in vivo. The following applies: Zymoseptoria tritici, preventive spray, wheat plants cv. Riband, inoculated one day after application, assessed 16-18 days after inoculation, untreated controls infected over 80%, read-out: inhibits fungal infestation. As to the method:
Sentoria tritici/wheat/Preventive (Action against Septoria Leaf Spot on Wheat) 2 weeks old wheat plants cv. Riband are treated with the formulated test compound in a spray chamber. One day after application wheat plants are inoculated by spraying a spore suspension (10^6 conidia/ml) on the test plants. After an incubation period of 1 day at 22° C./21° C. and 95% r. h. plants are kept at 22° C./21° C. and 70% r.h. in a greenhouse. The disease incidence is assessed 16-18 days after inoculation.

Data set [4] relates to Magnaporthe grisea (Pyricularia oryzae). In words: whole plant or invertebrate. Format: in vivo. The following applies: read-out: inhibit fungal infestation.
The test system of data set [5] is Puccinia recondita. In words: Puccinia recondita/wheat/preventive (Action against Brown Rust on Wheat). Format: in vivo. The following applies: preventive spray, wheat plants cv. Arina, inoculated one day after application, assessed 11 days after inoculation, untreated controls infected over 80%, read-out: inhibits fungal infestation. How it is done: Puccinia recondita/wheat/preventive (Action against Brown Rust on Wheat) 1 week old wheat plants cv. Arina are treated with the formulated test compound in a spray chamber. One day after application wheat plants are inoculated by spraying a spore suspension (1×105 uredospores/ml) on the test plants. After an incubation period of 1 day at 20° C. and 95% r. h. plants are kept for 10 days 20° C./18° C. (day/night) and 60% r.h. in a greenhouse. The disease incidence is assessed 11 days after inoculation.

Data set [6] relates to Pyrenophora teres (Helminthosporium teres). In words: Pyrenophora teres (Helminthosporium teres)/barley/preventive (Action against Net Blotch on Barley). Format: in vivo. The following applies: preventive spray, barley plants cv. Regina, inoculated two days after application, assessed after 4 days, untreated controls infected over 80%, read-out: inhibit fungal infestation. As to the method:
Pyrenophora teres (Helminthosporium teres)/barley/preventive (Action against Net Blotch on Barley) 1-week-old barley plants cv. Regina are treated with the formulated test compound in a spray chamber. Two days after application barley plants are inoculated by spraying a spore suspension (2.6×10^4 conidia/ml) on the test plants. After an incubation period of 4 days at 20° C. and 95% r. h. the disease incidence is assessed.

Data set [7] concerns Uncinula necator. As to the kind of experiment: Uncinula necator/grape/preventive (Action against Powdery Mildew on Grape). The class given is in vivo. The following applies: Erysiphe necator, preventive spray, grape seedlings cv. Gutedel, inoculated one day after application, assessed after 7 days, untreated controls infected over 80%, read-out: inhibit fungal infestation. As to the method: Uncinula necator/grape/preventive (Action against Powdery Mildew on Grape) 5 weeks old grape seedlings cv. Gutedel are treated with the formulated test compound in a spray chamber. One day after application grape plants are inoculated by shaking plants infected with grape powdery mildew above the test plants. After an incubation period of 7 days at 24° C./22° C. and 70% r. h. under a light regime of 14/10 h (light/dark) the disease incidence is assessed.

Turning to `Fc1cc(F)c(-c2c(Cl)nnc(Cl)c2-c2cccc(Cl)c2)c(F)c1` [I.b. 198, 3,6-dichloro-4-(3-chloro-phenyl)-5-(2,4,6-trifluoro-phenyl)-pyridazine], the melting point fell in the range of 138 to 140 °C. In addition, the inhibition at 200 ppm in data set [1] was ≥ 80%. Moreover, in data set [2], the inhibition at 200 ppm was ≥ 80%. The inhibition at 200 ppm in data set [3] was ≥ 80%. Besides, in data set [4], the inhibition at 200 ppm is ≥ 80%.

Take `Fc1cc(F)c(-c2c(Cl)nnc(Cl)c2-c2cccc(Br)c2)c(F)c1` [I.c. 198, 3,6-dichloro-4-(3-bromo-phenyl)-5-(2,4,6-trifluoro-phenyl)-pyridazine]: the melting point is 120 to 121 °C. Also, the inhibition at 200 ppm in data set [5] is ≥ 80%. The inhibition at 200 ppm in data set [6] is ≥ 80%.

In the case of `Cc1cccc(-c2c(Cl)nnc(Cl)c2-c2c(F)cc(F)cc2F)c1` [I.d. 198, 3,6-dichloro-4-m-tolyl-5-(2,4,6-trifluoro-phenyl)-pyridazine], the melting point is 121 to 123 °C. Also, in data set [3], the inhibition at 200 ppm was ≥ 80%. For the same molecule, the inhibition at 200 ppm in data set [6] is ≥ 80%.

Molecule `Oc1nnc(O)c(-c2c(F)cc(F)cc2F)c1-c1cccc(C(F)(F)F)c1` [I.e.196, 4-(3-trifluoromethyl-phenyl)-5-(2,4,6-trifluoro-phenyl)-pyridazine-3,6-diol] came in with a melting point of 259 to 260 °C.

For `Fc1cc(F)c(-c2c(Cl)nnc(Cl)c2-c2cccc(C(F)(F)F)c2)c(F)c1` [I.e. 198, 3,6-dichloro-4-(3-trifluoromethyl-phenyl)-5-(2,4,6-trifluoro-phenyl)-pyridazine], the melting point was in the range of 117 to 119 °C. Moreover, the inhibition at 200 ppm in data set [2] was ≥ 80%. Besides, in data set [7], the inhibition at 200 ppm is ≥ 80%.

For `Fc1ccc(-c2c(F)nnc(F)c2-c2c(F)cc(F)cc2F)cc1` [I.j. 197, 3,6-difluoro-4-(4-fluoro-phenyl)-5-(2,4,6-trifluoro-phenyl)-pyridazine], the melting point lay within 74 to 76 °C. For the same molecule, the inhibition at 200 ppm in data set [1] was ≥ 80%. Moreover, the inhibition at 200 ppm in data set [5] was ≥ 80%. Also, in data set [2], the inhibition at 200 ppm was ≥ 80%. Also, in data set [3], the inhibition at 200 ppm is ≥ 80%. Moreover, the inhibition at 200 ppm in data set [6] was ≥ 80%.

`COc1nnc(Cl)c(-c2c(F)cc(F)cc2F)c1-c1ccc(F)cc1` [I.j. 199, 3-chloro-5-(4-fluoro-phenyl)-6-methoxy-4-(2,4,6-trifluoro-phenyl)-pyridazine] displayed a melting point of 146 to 151 °C. Also, the inhibition at 200 ppm in data set [1] was ≥ 80%. Further, the inhibition at 200 ppm in data set [2] was ≥ 80%. The inhibition at 200 ppm in data set [3] was ≥ 80%. Further, the inhibition at 200 ppm in data set [4] is ≥ 80%. For the same molecule, in data set [7], the inhibition at 200 ppm is ≥ 80%. In addition, the inhibition at 200 ppm in data set [6] was ≥ 80%.

`Oc1nnc(O)c(-c2c(F)cccc2Cl)c1-c1ccc(Cl)cc1` [I.k.076, 4-(4-chloro-phenyl)-5-(2-chloro-6-fluoro-phenyl)-pyridazine-3,6-diol] gave a melting point of 144 to 149 °C.

Take `Fc1cccc(Cl)c1-c1c(Cl)nnc(Cl)c1-c1ccc(Cl)cc1` [I.k.078, 3,6-dichloro-4-(2-chloro-6-fluoro-phenyl)-5-(4-chloro-phenyl)-pyridazine]: the melting point was in the range of 144 to 145 °C.

`COc1nnc(Cl)c(-c2c(F)cccc2Cl)c1-c1ccc(Cl)cc1` [I.k.079, 3-chloro-4-(2-chloro-6-fluoro-phenyl)-5-(4-chloro-phenyl)-6-methoxy-pyridazine] showed a melting point of 137 to 141 °C.

`Oc1nnc(O)c(-c2c(F)cc(F)cc2F)c1-c1ccc(Cl)cc1` [I.k.196, 4-(4-chloro-phenyl)-5-(2,4,6-trifluoro-phenyl)-pyridazine-3,6-diol] gave a melting point of 158 to 164 °C.

On to `O=c1[nH][nH]c(=O)c(-c2c(F)cc(F)cc2F)c1-c1ccc(Br)cc1` [I.l.196, 4-(4-bromophenyl)-5-(2,4,6-trifluorophenyl)-1,2-dihydro-pyridazine-3,6-dione], for which the melting point is 272 to 274 °C.

Molecule `Fc1cc(F)c(-c2c(F)nnc(F)c2-c2ccc(Br)cc2)c(F)c1` [I.l. 197, 4-(4-bromophenyl)-3,6-difluoro-5-(2,4,6-trifluorophenyl)-pyridazine] gave a melting point of 132 to 133 °C. The inhibition at 200 ppm in data set [1] is ≥ 80%. In data set [5], the inhibition at 200 ppm is ≥ 80%. Besides, the inhibition at 200 ppm in data set [3] is ≥ 80%. Besides, the inhibition at 200 ppm in data set [4] is ≥ 80%. In addition, in data set [7], the inhibition at 200 ppm was ≥ 80%. For the same molecule, in data set [6], the inhibition at 200 ppm is ≥ 80%.

Take `Fc1cc(F)c(-c2c(Cl)nnc(Cl)c2-c2ccc(Br)cc2)c(F)c1` [I.l. 198, 4-(4-bromophenyl)-3,6-dichloro-5-(2,4,6-trifluorophenyl)-pyridazine]: the melting point is 134 to 137 °C. For the same molecule, the inhibition at 200 ppm in data set [1] is ≥ 80%. For the same molecule, the inhibition at 200 ppm in data set [5] is ≥ 80%. Moreover, in data set [2], the inhibition at 200 ppm was ≥ 80%. Besides, the inhibition at 200 ppm in data set [3] was ≥ 80%. The inhibition at 200 ppm in data set [4] was ≥ 80%. Besides, in data set [6], the inhibition at 200 ppm is ≥ 80%.

Regarding `Cc1ccc(-c2c(Cl)nnc(Cl)c2-c2c(F)cc(F)cc2F)cc1` [I.m. 198, 3,6-dichloro-4-p-tolyl-5-(2,4,6-trifluoro-phenyl)-pyridazine], the inhibition at 200 ppm in data set [1], in data set [5], in data set [2], in data set [3], in data set [7] and in data set [6] was ≥ 80% each time.

In the case of `COc1nnc(Cl)c(-c2c(F)cc(F)cc2F)c1-c1ccc(C)cc1` [I.m. 199, 3-chloro-6-methoxy-5-p-tolyl-4-(2,4,6-trifluoro-phenyl)-pyridazine], the melting point lay in the range of 126 to 128 °C. Further, in data set [5], the inhibition at 200 ppm is ≥ 80%. For the same molecule, the inhibition at 200 ppm in data set [3] is ≥ 80%.

On to `CCc1ccc(-c2c(O)nnc(O)c2-c2c(F)cc(F)cc2F)cc1` [I.o.196, 4-(4-ethyl-phenyl)-5-(2,4,6-trifluoro-phenyl)-pyridazine-3,6-diol], for which the melting point was in the range of 278 to 289 °C.

Regarding `CCc1ccc(-c2c(OC)nnc(Cl)c2-c2c(F)cc(F)cc2F)cc1` [I.o. 199, 3-chloro-5-(4-ethyl-phenyl)-6-methoxy-4-(2,4,6-trifluoro-phenyl)-pyridazine], the melting point lay within 109 to 112 °C. The inhibition at 200 ppm in data set [1] was ≥ 80%. Further, the inhibition at 200 ppm in data set [5] is ≥ 80%. The inhibition at 200 ppm in data set [3] was ≥ 80%. Moreover, in data set [4], the inhibition at 200 ppm is ≥ 80%. In data set [7], the inhibition at 200 ppm is ≥ 80%.

The molecule `COc1ccc(-c2c(O)nnc(O)c2-c2c(F)cc(F)cc2F)cc1` [I.p.196, 4-(4-methoxy-phenyl)-5-(2,4,6-trifluoro-phenyl)-pyridazine-3,6-diol] yielded a melting point of 287 to 294 °C.

For the molecule `COc1ccc(-c2c(Cl)nnc(Cl)c2-c2c(F)cc(F)cc2F)cc1` [I.p. 198, 3,6-dichloro-4-(4-methoxy-phenyl)-5-(2,4,6-trifluoro-phenyl)-pyridazine], the melting point was 106 to 109 °C. Moreover, the inhibition at 200 ppm in data set [1] was ≥ 80%. Further, the inhibition at 200 ppm in data set [2] is ≥ 80%. In addition, the inhibition at 200 ppm in data set [3] is ≥ 80%. The inhibition at 200 ppm in data set [4] is ≥ 80%. In data set [7], the inhibition at 200 ppm was ≥ 80%.

For the molecule `Fc1cc(F)c(-c2c(Cl)nnc(Cl)c2-c2ccc(Cl)c(Cl)c2)c(F)c1` [I.v. 198, 3,6-dichloro-4-(3,4-dichloro-phenyl)-5-(2,4,6-trifluoro-phenyl)-pyridazine], the melting point lay in the range of 139 to 140 °C. In data set [1], the inhibition at 200 ppm is ≥ 80%. Also, in data set [2], the inhibition at 200 ppm was ≥ 80%. The inhibition at 200 ppm in data set [3] was ≥ 80%. Further, in data set [6], the inhibition at 200 ppm is ≥ 80%.
